Measured values taken from US20250034183A1, “POLYMORPHIC FORMS AND METHODS OF PRODUCING POLYMORPHIC FORMS OF A COMPOUND” (Viking Therapeutics, Inc., priority 2022, published 2025).
“And” between values parts separate entries of the source, which are not always exact repeats. Identical values can stand only once. “Also recorded” adds a separate entry of the source. Counter-ions that a name gives are not always drawn.

Key:
Assay type in all cases: physicochemical
[1] = Equilibrium aqueous solubility in water at ambient temperature
Method: Equilibrium solubility of Compound 1 and 1-A was measured in water at ambient temperature. A known volume of water was placed in a 1-dram glass vial and weight aliquots of Compound 1 or Compound 1-A were added while magnetically stirring at room temperature. If the solid dissolved, another aliquot of […] was added.

[2] = Kinetic solubility in simulated gastric fluid (SGF); details: for Concentration in SFG: SGF pH about 1.2, 37° C.; for Resulting solid after kinetic solubility in SGF (XRPD): SGF pH about 1.2; for Concentrations in SGF up until 6 hours: SGF pH about 1.2, all time points up until 6 hours
Method: (§1) In SGF, concentrations were below 1 μg/mL up until 6 hours. The resulting solid was form A. In water, a concentration of 0.3 mg/mL was achieved within 2 minutes and concentration after 6 hours was about 0.5 mg/mL.
(§2) In SGF, concentrations were below 1 μg/mL up until 6 hours. The resulting solid was non-crystalline by XRPD. In water, a concentration of 2.3 mg/mL was achieved within 2 minutes and concentration after 6 hours was about 3.1 mg/mL.

[3] = Kinetic solubility in water at 37° C.
Method: as §1, §2

[4] = Dynamic vapor sorption (DVS) hygroscopicity; details: for Hygroscopicity / water uptake (DVS): 25° C., 5 to 95% RH
Method: DVS analysis was carried out using a TA Instruments Q5000 Dynamic Vapor Sorption analyzer. The instrument was calibrated with standard weights and a sodium bromide standard for humidity. Approximately 10-25 mg of sample was loaded into a metalcoated quartz pan for analysis. The sample was analyzed at 25° C. with a maximum equilibration time of one hour in 10% relative humidity (RH) steps from 5 to 95% RH (adsorption cycle) and from 95 to 5% RH (desorption cycle). The movement from one step to the next occurred either after satisfying the equilibrium criterion of 0.01% weight change or, if the equilibrium criterion was not met, after one hour. The percent weight change values were calculated using Microsoft Excel®.

[5] = Competitive slurry (interconversion) experiments, solid form by XRPD; details: all competitive slurry conditions tested
Method: Solutions (˜2 mL) were saturated with Form A of Compound 1. Once saturated, they were centrifuged and the mother liquors were transferred to HPLC vials containing equal amounts (approximately 10 mg each) of Forms A, C, D, and E. The samples were then stirred magnetically at a specified temperature for 3 days. Solids were collected by vacuum filtration.

Row | Structure (SMILES) | Concentration at 4 hours [1] [µg/mL] | Concentration at 24 hours [1] [µg/mL] | Concentration at 48 hours [1] [µg/mL] | Concentration in SFG ([2]; 2 min) [µg/mL] | Concentration in SFG ([2]; 5 min) [µg/mL] | Concentration in SFG ([2]; 10 min) [µg/mL] | Concentration in SFG ([2]; 30 min) [µg/mL] | Concentration in SFG ([2]; 60 min) [µg/mL] | Concentration in SFG ([2]; 120 min) [µg/mL] | Concentration in SFG ([2]; 240 min) [µg/mL] | Concentration in SFG ([2]; 360 min) [µg/mL] | Concentration in water ([3]; 2 min) | Concentration in water ([3]; 5 min) [µg/mL] | Concentration in water ([3]; 10 min) [µg/mL] | Concentration in water ([3]; 30 min) [µg/mL] | Concentration in water ([3]; 60 min) [µg/mL] | Concentration in water ([3]; 120 min) [µg/mL] | Concentration in water ([3]; 240 min) [µg/mL] | Concentrations in SGF up until 6 hours [2] | Hygroscopicity / water uptake (DVS) [4] | also measured
1 | Cc1cc(OCP(=O)(O)O)cc(C)c1Cc1ccc(O)c(Cc2ccccc2)c1 [Compound 1-A, (2-dimethylamino)ethanol (“deanol”) salt of Compound 1] | 1450 | 1430 | 1420 | 0.35 | 0.17 | 0.11 | 0.08 | 0.05 | 0.28 | 0.21 | 0.07 | 2250 µg/mL | 2660 | 2980 | 3070 | 3140 | 2280 | 2870 |  |  | Concentration in water ([3]; 360 min (6 hours)): 3070 µg/mL
2 | Cc1cc(OCP(=O)(O)O)cc(C)c1Cc1ccc(O)c(Cc2ccccc2)c1 [Compound 1] | 300 | 320 | 320 | 0.4 | 0.18 | 0.11 | 0.1 | 0.07 | 0.37 | 0.15 | 0.1 | 300 µg/mL and 290 µg/mL | 330 | 300 | 290 | 400 | 410 | 390 | below 1 μg/mL |  | Resulting solid after kinetic solubility in SGF (XRPD) [2]: form A
3 | Cc1cc(OCP(=O)(O)O)cc(C)c1Cc1ccc(O)c(Cc2ccccc2)c1 [Crystalline Form 1] |  |  |  |  |  |  |  |  |  |  |  |  |  |  |  |  |  |  | below 1 μg/mL |  | Resulting solid after kinetic solubility in SGF (XRPD) ([2]; listed as Compound 1-A (Form 1)): non-crystalline; Resulting solid after kinetic solubility in water [3]: crystalline Form 3; Concentration in water ([3]; 2 min, listed as Compound 1-A (Form 1)): 2300 µg/mL; Concentration in water ([3]; 360 min (6 hours), listed as Compound 1-A (Form 1)): about 3.1 mg/mL
4 | Cc1cc(OCP(=O)(O)O)cc(C)c1Cc1ccc(O)c(Cc2ccccc2)c1 [Crystalline Form 2] |  |  |  |  |  |  |  |  |  |  |  |  |  |  |  |  |  |  |  |  | Hygroscopicity / water uptake (DVS) ([4]; listed as Crystal Form 2): moderately hygroscopic
5 | Cc1cc(OCP(=O)(O)O)cc(C)c1Cc1ccc(O)c(Cc2ccccc2)c1 [Crystalline Form 3] |  |  |  |  |  |  |  |  |  |  |  |  |  |  |  |  |  |  |  | slight water uptake | 
6 | Cc1cc(OCP(=O)(O)O)cc(C)c1Cc1ccc(O)c(Cc2ccccc2)c1 [Crystalline Form A] |  |  |  |  |  |  |  |  |  |  |  |  |  |  |  |  |  |  |  | moderately hygroscopic; also recorded: moderate water uptake | Stability over humidity [4]: stable over a wide range of humidity; Relative stability of crystal forms [5]: most stable form
